{"source": "paper PMC6028563", "about": "“Probing Substituents in the 1- and 3-Position: Tetrahydropyrazino-Annelated Water-Soluble Xanthine Derivatives as Multi-Target Drugs With Potent Adenosine Receptor Antagonistic Activity” (Frontiers in Chemistry, 2018)", "key": {"human A2A AR": {"molecular_target": "T1, human A2A AR (Homo sapiens, UniProt P29274)", "T1 construct": "expressed in transfected cells; host or cells: CHO cells", "T1 sequence (P29274 whole entry)": "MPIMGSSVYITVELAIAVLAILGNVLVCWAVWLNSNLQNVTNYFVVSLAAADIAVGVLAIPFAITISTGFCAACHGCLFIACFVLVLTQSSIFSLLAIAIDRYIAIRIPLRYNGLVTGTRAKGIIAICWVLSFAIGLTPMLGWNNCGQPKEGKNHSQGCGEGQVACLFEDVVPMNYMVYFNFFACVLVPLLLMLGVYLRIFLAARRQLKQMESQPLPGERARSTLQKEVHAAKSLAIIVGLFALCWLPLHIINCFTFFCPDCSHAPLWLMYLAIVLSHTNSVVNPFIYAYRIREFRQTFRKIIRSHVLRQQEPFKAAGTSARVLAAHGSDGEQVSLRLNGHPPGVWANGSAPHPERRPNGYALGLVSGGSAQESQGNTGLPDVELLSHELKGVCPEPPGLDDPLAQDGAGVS", "conditions": "cited from earlier work; for Ki: human (h), 2007, 2013"}, "recombinant human MAO-B": {"molecular_target": "T2, recombinant human MAO-B (Homo sapiens, UniProt P27338)", "T2 construct": "purchased Sigma-Aldrich M7441; host or cells: baculovirus-infected insect cells", "T2 sequence (P27338 1-520)": "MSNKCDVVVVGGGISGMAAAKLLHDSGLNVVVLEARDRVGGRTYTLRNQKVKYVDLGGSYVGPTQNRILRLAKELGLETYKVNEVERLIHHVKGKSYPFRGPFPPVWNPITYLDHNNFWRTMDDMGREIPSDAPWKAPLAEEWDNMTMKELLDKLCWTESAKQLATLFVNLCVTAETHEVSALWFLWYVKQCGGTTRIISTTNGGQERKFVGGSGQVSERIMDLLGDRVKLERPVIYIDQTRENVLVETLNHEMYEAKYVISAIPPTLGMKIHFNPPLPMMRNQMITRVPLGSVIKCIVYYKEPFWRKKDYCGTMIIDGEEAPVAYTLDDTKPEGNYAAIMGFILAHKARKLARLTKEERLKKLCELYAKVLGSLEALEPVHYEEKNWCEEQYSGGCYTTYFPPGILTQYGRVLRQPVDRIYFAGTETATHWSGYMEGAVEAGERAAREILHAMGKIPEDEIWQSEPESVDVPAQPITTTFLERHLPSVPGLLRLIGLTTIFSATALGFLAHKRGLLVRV", "conditions": "human (h), 2013, cited from earlier work"}, "human A1 AR": {"molecular_target": "T3, human A1 AR (Homo sapiens, UniProt P30542)", "T3 construct": "expressed in transfected cells; host or cells: CHO cells", "T3 sequence (P30542 1-326)": "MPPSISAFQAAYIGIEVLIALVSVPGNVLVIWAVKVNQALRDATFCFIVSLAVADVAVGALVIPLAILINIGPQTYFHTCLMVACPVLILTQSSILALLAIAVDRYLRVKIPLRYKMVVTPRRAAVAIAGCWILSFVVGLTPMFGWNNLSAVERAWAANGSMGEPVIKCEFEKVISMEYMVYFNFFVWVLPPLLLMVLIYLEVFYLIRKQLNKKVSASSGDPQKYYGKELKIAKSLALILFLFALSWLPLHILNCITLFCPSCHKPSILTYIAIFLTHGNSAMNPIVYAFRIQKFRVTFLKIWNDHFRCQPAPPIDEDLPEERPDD", "conditions": "cited from earlier work"}, "[1]": {"system": "haloperidol-induced catalepsy", "design": "method as in Wang et al., 2017; Robinson et al., 2015", "conditions": "rat; ref Wang et al., 2017; Robinson et al., 2015; cited from earlier work"}, "rat A2A AR": {"molecular_target": "T4, rat A2A AR (Rattus norvegicus, UniProt P30543)", "T4 construct": "A2A ARs of rat brain striatal membrane preparations; from tissue; host or cells: rat brain striatum membranes", "T4 sequence (P30543 whole entry)": "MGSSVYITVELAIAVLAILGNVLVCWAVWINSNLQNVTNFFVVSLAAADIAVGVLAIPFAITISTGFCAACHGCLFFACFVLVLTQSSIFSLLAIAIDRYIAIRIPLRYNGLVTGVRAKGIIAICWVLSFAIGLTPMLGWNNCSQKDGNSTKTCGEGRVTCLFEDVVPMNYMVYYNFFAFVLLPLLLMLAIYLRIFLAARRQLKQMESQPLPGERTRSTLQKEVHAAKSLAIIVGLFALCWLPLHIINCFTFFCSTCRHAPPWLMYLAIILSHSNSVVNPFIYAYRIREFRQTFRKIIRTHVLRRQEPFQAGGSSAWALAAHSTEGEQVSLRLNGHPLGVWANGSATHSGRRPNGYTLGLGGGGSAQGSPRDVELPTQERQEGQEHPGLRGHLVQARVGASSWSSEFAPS", "conditions": "cited from earlier work"}, "human A3 AR": {"molecular_target": "T5, human A3 AR (Homo sapiens, UniProt P0DMS8)", "T5 construct": "expressed in transfected cells; host or cells: CHO cells", "T5 sequence (P0DMS8 1-318)": "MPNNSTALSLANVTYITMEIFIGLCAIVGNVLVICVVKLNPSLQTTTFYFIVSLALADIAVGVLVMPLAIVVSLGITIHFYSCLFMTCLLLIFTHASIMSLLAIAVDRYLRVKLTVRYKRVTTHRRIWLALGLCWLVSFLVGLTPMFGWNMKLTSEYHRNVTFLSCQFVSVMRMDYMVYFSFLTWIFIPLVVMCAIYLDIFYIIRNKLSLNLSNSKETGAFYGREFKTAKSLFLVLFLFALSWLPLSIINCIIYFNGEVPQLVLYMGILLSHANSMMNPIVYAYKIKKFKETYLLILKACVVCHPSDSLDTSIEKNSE", "conditions": "cited from earlier work; for Ki: human (h)"}, "human A2B AR": {"molecular_target": "T6, human A2B AR (Homo sapiens, UniProt P29275)", "T6 construct": "expressed in transfected cells; host or cells: CHO cells", "T6 sequence (P29275 1-332)": "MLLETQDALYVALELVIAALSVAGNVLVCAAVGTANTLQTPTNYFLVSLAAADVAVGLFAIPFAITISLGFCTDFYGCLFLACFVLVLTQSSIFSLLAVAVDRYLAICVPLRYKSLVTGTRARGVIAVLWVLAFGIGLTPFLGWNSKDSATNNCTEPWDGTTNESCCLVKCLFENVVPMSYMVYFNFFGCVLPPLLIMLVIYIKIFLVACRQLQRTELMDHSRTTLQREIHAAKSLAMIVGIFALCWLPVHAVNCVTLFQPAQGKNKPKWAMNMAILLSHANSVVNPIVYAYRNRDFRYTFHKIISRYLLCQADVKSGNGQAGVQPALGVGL", "conditions": "cited from earlier work"}, "rat MAO-B": {"system": "rat MAO-B", "design": "method as in Brunschweiger et al., 2014, 2016", "conditions": "rat (r); Figure 3 and introduction; ref Brunschweiger et al., 2014, 2016; cited from earlier work"}, "recombinant human MAO-A": {"molecular_target": "T7, recombinant human MAO-A (Homo sapiens, UniProt P21397)", "T7 construct": "purchased Sigma-Aldrich M7316; host or cells: baculovirus-infected insect cells", "T7 sequence (P21397 1-527)": "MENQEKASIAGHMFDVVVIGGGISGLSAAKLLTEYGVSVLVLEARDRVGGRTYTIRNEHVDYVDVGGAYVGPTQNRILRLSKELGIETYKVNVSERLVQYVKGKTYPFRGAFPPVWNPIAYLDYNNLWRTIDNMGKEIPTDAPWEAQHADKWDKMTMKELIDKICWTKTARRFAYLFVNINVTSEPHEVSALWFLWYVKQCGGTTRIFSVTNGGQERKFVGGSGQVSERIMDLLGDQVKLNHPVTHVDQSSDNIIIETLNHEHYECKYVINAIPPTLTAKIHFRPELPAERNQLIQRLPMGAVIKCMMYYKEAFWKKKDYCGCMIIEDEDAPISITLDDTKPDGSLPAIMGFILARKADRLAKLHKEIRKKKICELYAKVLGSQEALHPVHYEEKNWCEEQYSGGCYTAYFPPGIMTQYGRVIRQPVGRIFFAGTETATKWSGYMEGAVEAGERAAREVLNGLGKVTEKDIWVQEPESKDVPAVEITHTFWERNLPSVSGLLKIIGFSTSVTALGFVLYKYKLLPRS", "assay": "Monoamine oxidase assay (Amplex Red), MAO-A", "assay_type": "biochemical", "outline": "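Recombinant human MAO-A and MAO-B, expressed in baculovirus-infected insect cells, were assayed by Amplex Red fluorometric detection. Rat MAO-B inhibition used mitochondria-enriched fractions from male Sprague Dawley rat liver.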"}, "[2]": {"conditions": "Figure 3 and introduction, ref Drabczynska et al., Koch et al., Brunschweiger et al., 2014, 2016"}, "[3]": {"conditions": "Figure 3 and introduction, ref Drabczynska et al., 2007, Koch et al., Brunschweiger et al., 2014, 2016"}, "[4]": {"conditions": "human (h), Figure 3 and introduction, ref Drabczynska et al., 2007, Koch et al., 2013, Brunschweiger et al., 2014, 2016, read-out: A1 (Ki)"}, "[5]": {"conditions": "radioligand, ref Müller et al., 2000"}}, "note": "Several values for one entry are separate records, joined by “and”; a condition that tells them apart may be missing. Identical values can stand only once. Like-named read-outs stand apart in the source and are kept apart here."}
{"molecule": "Cn1c(=O)c2c(nc3n2CCN(Cc2cc(F)c(Cl)cc2Cl)C3)n(C)c1=O", "note": "[Compound 10a, 8-(2,4-dichloro-5-fluorobenzyl)-1,3-dimethyl-6,7,8,9-tetrahydropyrazino[2,1-f]purine-2,4(1H,3H)-dione]", "values": [{"measurement": "Ki", "setting": "human A2A AR; [2]", "result": 0.268, "unit": "µM"}, {"measurement": "IC50", "setting": "recombinant human MAO-B; [3]", "result": 0.508, "unit": "µM"}, {"measurement": "Ki", "setting": "human A1 AR; [4]", "result": 0.217, "unit": "µM"}]}
{"molecule": "Cc1ccc(-c2cc(-c3cccc(C(=O)N4CCCCC4)c3)nc(N)n2)o1", "note": "[Compound 8]", "values": [{"measurement": "effect in haloperidol-induced catalepsy model", "setting": "[1]", "result": "in vivo efficacy"}]}
{"molecule": "C#CCn1c(=O)c2c(nc(C=Cc3cccc(OC)c3)n2C)n(CCCO)c1=O", "note": "[[^3H]MSX-2, [^3H]3-(3-hydroxypropyl)-7-methyl-8-(m-methoxystyryl)-1-propargylxanthine]", "values": [{"measurement": "Kd", "setting": "rat A2A AR; [5]", "result": 0.008, "unit": "µM"}, {"measurement": "Kd", "setting": "human A2A AR; [5]", "result": 0.0073, "unit": "µM"}]}
{"molecule": "Cn1c(=O)c2c(nc(-c3ccc(C(=O)Nc4ccccc4)cc3)n2C)n(C)c1=O", "note": "[PX-D-P6]", "values": [{"measurement": "effect in haloperidol-induced catalepsy model", "setting": "[1]", "result": "anti-cataleptic effects"}, {"measurement": "Ki", "setting": "human A2A AR; Figure 2 and introduction, ref Chen et al., 2002, Wang et al., 2017, Stössel et al., Mihara et al.", "result": 0.33, "unit": "µM"}, {"measurement": "IC50", "setting": "recombinant human MAO-B; Figure 2 and introduction, ref Chen et al., 2002, Pretorius et al., 2008, Wang et al., 2017, Stössel et al.", "result": "0.26 µM and 0.29 µM"}]}
{"molecule": "COc1ccccc1CN1CCCn2c1nc1c2c(=O)n(C)c(=O)n1C", "note": "[Compound 9b]", "values": [{"measurement": "Ki", "setting": "human A2A AR; [2]", "result": 0.417, "unit": "µM"}, {"measurement": "IC50", "setting": "recombinant human MAO-B; [3]", "result": 1.8, "unit": "µM"}, {"measurement": "Ki", "setting": "human A1 AR; [4]", "result": 0.605, "unit": "µM"}]}
{"molecule": "[^3H](R)-8-ethyl-4-methyl-2-(phenyl)1,4,7,8-tetrahydro-5H-imidazo[2,1-i]purin-5-one [[^3H]PSB-11]", "values": [{"measurement": "Kd", "setting": "human A3 AR; radioligand, ref Müller et al., 2002", "result": 0.0049, "unit": "µM"}]}
{"molecule": "[^3H]8-(4-[4-(4-chlorophenyl)piperazine-1-sulfonyl]phenyl)-1-propyl-2,3,6,7-tetrahydro-1H-purine-2,6-Dione [[^3H]PSB-603]", "values": [{"measurement": "Kd", "setting": "human A2B AR; radioligand, ref Borrmann et al., 2009", "result": 0.00041, "unit": "µM"}]}
{"molecule": "Cn1c(=O)c2c(nc3n2CCN(Cc2ccc(Cl)c(Cl)c2)C3)n(C)c1=O", "note": "[Compound 10b, 8-(3,4-Dichlorobenzyl)-1,3-dimethyl-6,7,8,9-tetrahydropyrazino[2,1-f]purine-2,4(1H,3H)-dione]", "values": [{"measurement": "Ki", "setting": "rat A2A AR; rat (r), Figure 3 and introduction, ref Brunschweiger et al., 2014, 2016", "result": 0.322, "unit": "µM"}, {"measurement": "IC50", "setting": "rat MAO-B", "result": 0.26, "unit": "µM"}]}
{"molecule": "O=C(CCCc1ccccc1)Nc1nc2ccccc2c(=O)s1", "note": "[Compound 6, N-(4-oxo-4H-3,1-benzothiazin-2-yl)-4-phenylbutanamide]", "values": [{"measurement": "Ki", "setting": "human A3 AR; Figure 2, ref Chen et al., 2002, Stössel et al., 2013, Mihara et al., 2007, read-out: A3 (Ki)", "result": "> 1", "unit": "µM"}, {"measurement": "Ki", "setting": "human A2B AR; human (h), Figure 2, ref Chen et al., 2002, Stössel et al., 2013", "result": "> 1", "unit": "µM"}]}
{"molecule": "Cn1c(=O)c2c(nc(C=Cc3cccc(Cl)c3)n2C)n(C)c1=O", "note": "[CSC, 8-m-Chlorostyrylcaffeine]", "values": [{"measurement": "Ki", "setting": "human A3 AR; standard antagonists, ref Müller and Jacobson (2011), Brunschweiger et al. (2014), read-out: Ki, A3 vs. [^3H]PSB-11", "result": "> 10", "unit": "µM"}, {"measurement": "inhibition at 10 µM", "setting": "recombinant human MAO-A; at 10,000 nM, read-out: % inhibition at indicated concentration, Human MAO-A", "result": 23, "unit": "%"}, {"measurement": "IC50", "setting": "recombinant human MAO-A; n = 3, read-out: IC50 ± SEM, Human MAO-A", "result": "> 10", "unit": "µM"}, {"measurement": "% inhibition of radioligand binding at indicated concentration, A1 vs. [^3H]CCPA", "setting": "human A1 AR; at 10,000 nM, ref Müller and Jacobson (2011), Brunschweiger et al. (2014)", "result": 14, "unit": "%"}, {"measurement": "Ki", "setting": "human A1 AR; read-out: Ki, A1 vs. [^3H]CCPA, standard antagonists, ref Müller and Jacobson (2011), Brunschweiger et al. (2014)", "result": "> 10", "unit": "µM"}]}
